Laboratory results reported in BindingDB's records for patent US20250197403 (Achillion Pharmaceuticals, 2025).

These compounds were tested against Complement factor D (Homo sapiens, UniProt P00746) (assay: Human Factor D Assay).
Complement factor D, sequence (P00746 whole entry): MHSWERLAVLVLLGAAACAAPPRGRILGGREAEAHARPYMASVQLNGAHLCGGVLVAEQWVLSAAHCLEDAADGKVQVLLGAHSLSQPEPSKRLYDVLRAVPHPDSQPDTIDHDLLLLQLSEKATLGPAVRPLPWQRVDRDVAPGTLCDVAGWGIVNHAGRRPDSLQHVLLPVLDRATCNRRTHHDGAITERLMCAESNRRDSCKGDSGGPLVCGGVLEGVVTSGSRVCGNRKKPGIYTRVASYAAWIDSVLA
Experimental: Human Factor D (purified from human serum, Complement Technology, Inc.) at 80 nM final concentration is incubated with test compound at various concentrations for 5 min at room temperature in 50 mM Tris, 1M NaCl, pH 7.5. A synthetic substrate Z-L-Lys-SBzl and DTNB (Ellman's reagent) are added to final concentrations of 100 μM each. Absorbance at 405 nm (A405) is recorded at 30 second intervals for 30 min using a microplate spectrophotometer. IC50 values are calculated by nonlinear regression of complement Factor D reaction rates as a function of test compound concentration.
Compound `CC(=O)c1cn(CC(=O)N2C[C@@](F)(CF)C[C@H]2C(=O)Nc2nc(C(F)(F)F)ccc2Cl)c2c(C)nc(-c3cnc4cc(C)nn4c3)cc12` [US20250197403, Compound 92] has an IC50 of less than 1 µM.
Work on `CC(=O)c1cn(CC(=O)N2[C@H](C(=O)Nc3cncc(C(F)(F)F)n3)C[C@@]3(C)C[C@@H]23)c2c(C)cc(-c3cnc4cc(C)nn4c3)cc12` [US20250197403, Compound 48] yielded an IC50 of less than 1 µM.
With `CC(=O)c1cn(CC(=O)N2C[C@H]3C[C@H]3[C@H]2C(=O)Nc2nc(C(F)(F)F)ccc2C)c2c(C)cc(-c3cnc4cc(C)nn4c3)cc12` [US20250197403, Compound 1] the IC50 was less than 1 µM.
Compound `CC(=O)c1cn(CC(=O)N2[C@H](C(=O)Nc3nc(Br)ccc3C3CC3)C[C@@]3(C)C[C@@H]23)c2c(C)cc(-c3cnc(C)nc3)cc12` [US20250197403, Compound 9] has an IC50 of less than 1 µM.
Compound `COCc1ccc(Br)nc1NC(=O)[C@@H]1C[C@@]2(C)C[C@H]2N1C(=O)Cn1cc(C(C)=O)c2cc(-c3ccc4nc(C)nn4c3)cc(C)c21` [US20250197403, Compound 62] has an IC50 of less than 1 µM.
`CC(=O)c1cn(CC(=O)N2[C@H](C(=O)Nc3nc(C(F)(F)F)ccc3C)C[C@@]3(C)C[C@@H]23)c2c(C)cc(-c3cnc4sc(C)nc4c3)cc12` [US20250197403, Compound 70] gave an IC50 of less than 1 µM.
